From patent EP0444854B1, “6-Substituted hexahydrobenz[cd]indoles” (ELI LILLY AND COMPANY, priority 1990, dated 1991)

Target: T1, 5-HT1A receptors (Rattus norvegicus, UniProt P19327)
T1 construct: from tissue; host or cells: rat cerebral cortex, crude synaptosomal membranes
T1 sequence (P19327 1-422): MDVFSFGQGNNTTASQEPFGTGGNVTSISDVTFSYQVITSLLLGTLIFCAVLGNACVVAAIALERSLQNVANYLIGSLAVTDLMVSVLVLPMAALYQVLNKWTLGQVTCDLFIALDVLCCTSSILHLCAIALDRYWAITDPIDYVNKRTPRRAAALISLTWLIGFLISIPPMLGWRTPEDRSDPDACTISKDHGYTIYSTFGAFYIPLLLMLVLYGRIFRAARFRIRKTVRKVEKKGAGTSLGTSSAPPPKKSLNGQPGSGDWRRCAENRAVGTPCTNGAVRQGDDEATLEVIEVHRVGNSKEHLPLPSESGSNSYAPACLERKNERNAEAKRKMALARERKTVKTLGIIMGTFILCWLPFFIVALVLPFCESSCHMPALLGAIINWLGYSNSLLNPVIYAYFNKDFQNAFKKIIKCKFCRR
Assay: Inhibition of 3H-8-OH-DPAT binding to synaptosomal membranes from rat cerebral cortex
Parameters: species or system Male Sprague-Dawley rats
Conditions: 0.4 nM 3H-8-OH-DPAT; for inhibition at 0.1 µM: at 100 nanomoles of test compound, read-out: percent of inhibition of binding of 8-OH-DPAT at 100 nanomoles if less than 50%; for IC50: 37°C, 10 min, read-out: IC50 (concentration in nanomoles which inhibited binding of 8-OH-DPAT by 50%)
Experimental: This general procedure is set forth in Wong et al., J. Neural Transm. 71:207-218 (1988).
Male Sprague-Dawley rats (110-150 g) from Harlan Industries (Cumberland, IN) were fed a Purina Chow ad libitum for at least 3 days before being used in the studies. Rats were killed by decapitation. The brains were rapidly removed, and the cerebral cortices were dissected out at 4°C.
Brain tissues were homogenized in 0.32 M sucrose. After centrifugation at 1000 x g for 10 min and then at 17000 x g for 20 min, a crude synaptosomal fraction was sedimented. The pellet was suspended in 100 vol of 50 mM Tris-HCl, pH 7.4, incubated at 37°C for 10 min, and centrifuged at 50000 x g for 10 min. The process was repeated and the final pellet was suspended in ice-chilled 50 mM Tris-HCl, pH 7.4. By the radioligand binding method, sites specifically labeled by tritiated 8-hydroxy-2-dipropylamino-1,2,3,4-tetrahydronaphthalene (^3H-8-OH-DPAT) have been identified as 5-HT1A receptors.
Binding of (^3H-8-OH-DPAT) was performed according to the previously described method [Wong et al., J. Neural Transm. 64:251-269 (1985)]. Briefly, synaptosomal membranes isolated from cerebral cortex were incubated at 37°C for 10 min. in 2 ml of 50 mM Tris-HCl, pH 7.4; 10 µM pargyline; 0.6 mM ascorbic acid; 0.4 nM ^3H-8-OH-DPAT; and from […] of test compound. Binding was terminated by filtering samples under reduced pressure through glass fiber (GFB) filters. The filters were washed twice with 5 ml of ice cold buffer and placed in scintillation vials with 10 ml of PCS (Amersham/Searle) scintillation fluid. Radioactivity was measured with a liquid scintillation spectrometer. Unlabeled 8-OH-DPAT at 10 µM was also included in separate samples to establish non-specific binding. Specific binding of ^3H-8-OH-DPAT is defined as the difference of radioactivity bound in the absence and in the presence of 10 µM unlabeled 8-OH-DPAT.
For these compounds which inhibited the binding of ^3H-8-OH-DPAT by less than 50%, the percent of inhibition is given in parenthesis.

| SMILES | inhibition at 0.1 µM [%] | IC50 [nM] |
| --- | --- | --- |
| N[C@@H]1Cc2c(Br)ccc3c2[C@@H](C1)CN3C(=O)c1ccccc1 [Example 1, (2aR,4S)-1-benzoyl-4-amino-6-bromo-1,2,2a,3,4,5-hexahydrobenz[cd]indole] | 6 | – |
| CCCN(CCC)[C@@H]1Cc2c(Br)ccc3c2[C@@H](C1)CN3C(=O)c1ccccc1 [Example 3, (2aR, 4S)-1-Benzoyl-4-(di-n-propyl)-amino-6-bromo-1,2,2a,3,4,5-hexahydrobenz[cd]indole] | 5 | – |
| CCCN(CCC)[C@@H]1Cc2c(C#N)ccc3c2[C@@H](C1)CN3C(=O)c1ccccc1 [Example 5, (2aR,4S)-1-benzoyl-4-(di-n-propyl)amino-6-cyano-1,2,2a,3,4,5-hexahydrobenz[cd]indole] | 11 | – |
| CCCN(CCC)[C@@H]1Cc2c(C#N)ccc3c2[C@H](CN3)C1 [Example 7, (2aR,4S)-4-(di-n-propyl)amino-6-cyano-1,2,2a,3,4,5-hexahydrobenz[cd]indole] | 21 | – |
| CCCN(CCC)[C@@H]1Cc2c(C(N)=O)ccc3c2[C@H](CN3)C1 [Example 9, (2aR,4S)-4-(di-n-propylamino)-6-aminocarbonyl-1,2,2a,3,4,5-hexahydrobenz[c,d]indole] | – | 11 |
| CCCN(CCC)[C@H]1Cc2c(C(N)=O)ccc3c2[C@@H](CN3)C1 [Example 10, (2aS, 4R)-4-(di-n-propyl)-6-aminocaronyl-1,2,2a,3,4,5-hexahydrobenz[c,d]indole] | – | 2.1 |
| CCCN(CCC)[C@H]1Cc2c(C(=O)OC)ccc3c2[C@@H](CN3)C1 [Example 11, Methyl (2aS,4R)-4-(Di-n-propylamino)-1,2,2a,3,4,5-hexahydrobenz[c,d]indole-6-carboxylate] | – | 5.7 |
| CCCN(CCC)[C@H]1Cc2c(C(=O)N(C)C)ccc3c2[C@@H](CN3)C1 [Example 12, (2aS,4R)-N,N-Dimethyl-4-(di-n-propylamino)-1,2,2a,3,4,5-hexahydrobenz[cd]indole-6-carboxamide] | – | 5.1 |
